Results reported in patent publication US8017612B2, “Piperazine compound and use thereof as a HCV polymerase inhibitor” (priority 2006, dated 2011).
Where a name gives a salt, the structure may show the parent alone.

Legend:
[1] = target: T1, HCV polymerase (NS5B) type 1b (Hepatitis C virus genotype 1b, UniProt P26663); assay: Assay of enzyme (HCV polymerase) inhibitory activity, type 1b enzyme; assay type: biochemical, HCV BK strain (type 1b)
T1 construct: a region encoding NS5B (J Virol 1991 March, 65(3), 1105-13, 544 amino acids after deletion of 47 amino acids on the C-terminal); 6xHis (C); made in house; host or cells: Escherichia coli
In short: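 Polymerase activity was followed as radiolabelled UTP incorporation by E. coli-expressed, His-tagged NS5B of HCV type 1b lacking its last 47 residues. Conditions: 2 μM UTP, 50 μM other NTPs, Mg2+ buffer at pH 7.5, 25 °C for 60 min. Inhibition relative to compound-free reactions gave IC50.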

[2] = target: T2, HCV polymerase (NS5B) type 1a (Hepatitis C virus genotype 1a, UniProt P26664); assay: Assay of enzyme (HCV polymerase) inhibitory activity, type 1a enzyme; assay type: biochemical, HCV type 1a (cloned from the blood of patients)
T2 construct: made in house; host or cells: Escherichia coli (by the 'similar method' of the 1b enzyme)
In short: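 IC50 values derive from radioactivity of newly synthesized RNA with versus without test compound. The enzyme was C-terminally truncated type 1a NS5B, 1.5 μg/ml, run 60 min at 25° C with 3H-UTP-labelled nucleotides.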

[3] = HCV polymerase inhibitory activity IC50, 1b, type 1b enzyme
[4] = HCV polymerase inhibitory activity IC50, 1a, type 1a enzyme
[5] = HCV polymerase inhibitory activity (IC50), 1b, type 1b enzyme 0.5 μg/ml, 25° C., 60 min
[6] = HCV polymerase inhibitory activity (IC50), 1a, type 1a enzyme 1.5 μg/ml, 25° C., 60 min

SMILES	IC50 [1, 3] [nM]	IC50 [2, 4] [nM]	IC50 [1, 5] [nM]	IC50 [2, 6] [nM]
CCCc1ccc(CNC(=O)[C@H]2CN(C(=O)Nc3ccccc3OCc3ccccc3)CCN2S(=O)(=O)c2ccc(OC(F)(F)F)cc2)cc1 [Example 833, (R)-4-(4-trifluoromethoxy-benzenesulfonyl)-piperazine-1,3-dicarboxylic acid 1-[(2-benzyloxy-phenyl)-amide] 3-(4-propyl-benzylamide)]	> 1000	> 1000		
O=C(NCc1nc2ccccc2o1)[C@H]1CN(c2cnc3cncnc3n2)CCN1S(=O)(=O)c1ccc(OC(F)(F)F)cc1 [Example 639, (R)-4-pteridin-7-yl-1-(4-trifluoromethoxy-benzenesulfonyl)-piperazine-2-carboxylic acid (benzoxazol-2-ylmethyl)-amide]			100 to 1000	> 1000
O=C(NCc1ccc(OC(F)(F)F)cc1)[C@H]1CN(c2nc3nc(Cl)ncc3s2)CCN1S(=O)(=O)c1ccc(C(F)(F)F)s1 [Example 947, (R)-4-(5-chloro-thiazolo[4,5-d]pyrimidin-2-yl)-1-(5-trifluoromethyl-thiophene-2-sulfonyl)-piperazine-2-carboxylic acid 4-trifluoromethoxy-benzylamide]	< 100	< 100		
O=C(NCc1ccc(OC(F)(F)F)cc1)[C@H]1CN(c2cnc3ncccc3n2)CCN1S(=O)(=O)c1ccc(OC(F)(F)F)cc1 [Example 769, (R)-4-pyrido[2,3-b]pyrazin-2-yl-1-(4-trifluoromethoxy-benzenesulfonyl)-piperazine-2-carboxylic acid 4-trifluoromethoxy-benzylamide]	< 100	< 100		
CC(=O)c1ccc(S(=O)(=O)N2CCN(C(C)=O)CC2C(=O)NCc2ccc(C(F)(F)F)cc2)cc1 (centres unmarked) [Example 31, 4-acetyl-1-(4-acetyl-benzenesulfonyl)-piperazine-2-carboxylic acid 4-trifluoromethyl-benzylamide]			> 1000	> 1000
CCCc1ccc(CNC(=O)[C@H]2CN(C(=O)Cn3nnc(C)n3)CCN2S(=O)(=O)c2ccc(OC(F)(F)F)cc2)cc1 [Example 457, (R)-4-[2-(5-methyl-tetrazol-2-yl)-acetyl]-1-(4-trifluoromethoxy-benzenesulfonyl)-piperazine-2-carboxylic acid 4-propyl-benzylamide]			< 100	< 100
CC(=O)N1CCN(S(=O)(=O)c2ccc3c(c2)CCC3)[C@@H](C(=O)NCc2ccc(C(C)C)cc2)C1 [Example 204, (R)-4-acetyl-1-(indane-5-sulfonyl)-piperazine-2-carboxylic acid 4-isopropyl-benzylamide]			100 to 1000	100 to 1000
CN(C)c1ccc(CNC(=O)[C@H]2CN(c3cnc(C(=O)O)cn3)CCN2S(=O)(=O)c2ccc(OC(F)(F)F)cc2)cn1 [Example 407, (R)-3-[(6-dimethylamino-pyridin-3-ylmethyl)-carbamoyl]-4-(4-trifluoromethoxy-benzenesulfonyl)-3,4,5,6-tetrahydro-2H-[1,2′]bipyrazinyl-5′-carboxylic acid]			< 100	100 to 1000
CCOC(=O)c1nnc(NC(=O)N2CCN(S(=O)(=O)c3ccc(C(F)(F)F)cc3)[C@@H](C(=O)NCc3ccc(C(C)C)cc3)C2)o1 [Example 334, 5-{[(R)-3-(4-isopropyl-benzylcarbamoyl)-4-(4-trifluoromethyl-benzenesulfonyl)-piperazine-1-carbonyl]-amino}-[1,3,4]oxadiazole-2-carboxylic acid ethyl ester]			> 1000	> 1000
CC(C)c1ccc(CNC(=O)[C@H]2CN(C(=O)CCCCC(=O)O)CCN2S(=O)(=O)c2ccc(C(F)(F)F)cc2)cc1 [Example 213, 6-[(R)-3-(4-isopropyl-benzylcarbamoyl)-4-(4-trifluoromethyl-benzenesulfonyl)-piperazin-1-yl]-6-oxo-hexanoic acid]			100 to 1000	100 to 1000
COc1ccc(CNC(=O)[C@H]2CN(c3nc4nc(Cl)ncc4s3)CCN2S(=O)(=O)c2ccc(OC(F)(F)F)cc2)cc1 [Example 965, (R)-4-(5-chloro-thiazolo[4,5-d]pyrimidin-2-yl)-1-(4-trifluoromethoxy-benzenesulfonyl)-piperazine-2-carboxylic acid 4-methoxy-benzylamide]	< 100	< 100		
CC(=O)N1CCN(S(=O)(=O)c2ccc(C(C)C)cc2)C(C(=O)NCc2ccc(OC(C)C)cc2)C1 (centres unmarked) [Example 127, 4-acetyl-1-(4-isopropyl-benzenesulfonyl)-piperazine-2-carboxylic acid 4-isopropoxy-benzylamide]			> 1000	> 1000
CC(=O)N1CCN(S(=O)(=O)c2ccc(OC(F)(F)F)cc2)[C@@H](C(=O)NCCc2ccc(O)cc2)C1 [Example 675, (R)-4-acetyl-1-(4-trifluoromethoxy-benzenesulfonyl)-piperazine-2-carboxylic acid [2-(4-hydroxy-phenyl)-ethyl]-amide]	> 1000	> 1000		
CC(C)(C)c1ncc2sc(N3CCN(S(=O)(=O)c4ccc(C(F)(F)F)cc4)[C@@H](C(=O)NCc4ccc(OC(F)(F)F)cc4)C3)nc2n1 [Example 1025, (R)-4-(5-tert-butyl-thiazolo[4,5-d]pyrimidin-2-yl)-1-(4-trifluoromethyl-benzenesulfonyl)-piperazine-2-carboxylic acid 4-trifluoromethoxy-benzylamide]	< 100	< 100		
O=C(O)c1cnc(N2CCN(S(=O)(=O)c3ccc(Br)s3)[C@@H](C(=O)NCc3ccc(OC(F)(F)F)cc3)C2)cn1 [Example 787, (R)-4-(5-bromo-thiophene-2-sulfonyl)-3-(4-trifluoromethoxy-benzylcarbamoyl)-3,4,5,6-tetrahydro-2H-[1,2′]bipyrazinyl-5′-carboxylic acid]	< 100	< 100		
CC(C)(C)c1ccc(CNC(=O)[C@H]2CN(c3cnc(CO)c(N)n3)CCN2S(=O)(=O)c2ccc(OC(F)(F)F)cc2)cc1 [Example 575, (R)-6′-amino-5′-hydroxymethyl-4-(4-trifluoromethoxy-benzenesulfonyl)-3,4,5,6-tetrahydro-2H-[1,2′]bipyrazinyl-3-carboxylic acid 4-tert-butyl-benzylamide]			< 100	< 100
CN(C)c1ccc(CNC(=O)[C@H]2CNCCN2S(=O)(=O)c2ccc(C(F)(F)F)cc2)cc1 [Example 209, (R)-1-(4-trifluoromethyl-benzenesulfonyl)-piperazine-2-carboxylic acid 4-dimethylamino-benzylamide dihydrochloride]			> 1000	> 1000
CC(=O)N1CCN(S(=O)(=O)c2ccc(C(C)C)cc2)C(C(=O)NCc2ccc(N3CCOCC3)cc2)C1 (centres unmarked) [Example 80, 4-acetyl-1-(4-isopropyl-benzenesulfonyl)-piperazine-2-carboxylic acid 4-morpholin-4-yl-benzylamide]			> 1000	> 1000
O=C(O)Cn1ncc2sc(N3CCN(S(=O)(=O)c4ccc(OC(F)(F)F)cc4)[C@@H](C(=O)NCc4ccc(OC(F)F)c(F)c4)C3)nc2c1=O [Example 1121]	< 100	< 100		
CC(C)c1ccc(CNC(=O)[C@H]2CN(C(=O)CN)CCN2S(=O)(=O)c2ccc(C(F)(F)F)cc2)cc1 [Example 225, (R)-4-(2-amino-acetyl)-1-(4-trifluoromethyl-benzenesulfonyl)-piperazine-2-carboxylic acid 4-isopropyl-benzylamide hydrochloride]			100 to 1000	100 to 1000
O=C(NCc1ccc(OC(F)(F)F)cc1)[C@H]1CN(c2nc3nc(C(F)(F)F)ncc3s2)CCN1S(=O)(=O)c1ccc(OC(F)(F)F)cc1 [Example 961, (R)-1-(4-trifluoromethoxy-benzenesulfonyl)-4-(5-trifluoromethyl-thiazolo[4,5-d]pyrimidin-2-yl)-piperazine-2-carboxylic acid 4-trifluoromethoxy-benzylamide]	< 100	< 100		
CCCc1ccc(CNC(=O)[C@H]2CN(C(C)=O)CCN2S(=O)(=O)c2ccc(C(C)C)cc2)c(C)c1 [Example 12, (R)-4-acetyl-1-(4-isopropyl-benzenesulfonyl)-piperazine-2-carboxylic acid 2-methyl-4-propyl-benzylamide]			< 100	< 100
CCCc1ccc(CNC(=O)[C@H]2CN(c3ccc(C(=O)O)c(F)c3)CCN2S(=O)(=O)c2ccc(CC)cc2)cc1 [Example 889, 4-[(R)-4-(4-ethyl-benzenesulfonyl)-3-(4-propyl-benzylcarbamoyl)-piperazin-1-yl]-2-fluoro-benzoic acid]	> 1000	> 1000		
NC(=O)c1cncc2sc(N3CCN(S(=O)(=O)c4ccc(OC(F)(F)F)cc4)[C@@H](C(=O)NCc4ccc(OC(F)(F)F)cc4)C3)nc12 [Example 1123]	< 100	< 100		
COc1nncc2sc(N3CCN(S(=O)(=O)c4ccc(OC(F)(F)F)cc4)[C@@H](C(=O)NCc4ccc(OC(F)(F)F)cc4)C3)nc12 [Example 1009, (R)-4-(4-methoxy-thiazolo[4,5-d]pyridazin-2-yl)-1-(4-trifluoromethoxy-benzenesulfonyl)-piperazine-2-carboxylic acid 4-trifluoromethoxy-benzylamide]	< 100	< 100		
